{
  "source": "paper PMC6941823",
  "about": "“A dispensable paralog of succinate dehydrogenase subunit C mediates standing resistance towards a subclass of SDHI fungicides in Zymoseptoria tritici” (PLoS Pathogens, 2019)",
  "key": {"[1]": {"target": "SQR of 06STD024 (SDHC / altC) mitochondria (Zymoseptoria tritici, UniProt A0A1X7RQW2+F9X9V6+F9XH52+O42772)", "sequence (A0A1X7RQW2 36-181)": "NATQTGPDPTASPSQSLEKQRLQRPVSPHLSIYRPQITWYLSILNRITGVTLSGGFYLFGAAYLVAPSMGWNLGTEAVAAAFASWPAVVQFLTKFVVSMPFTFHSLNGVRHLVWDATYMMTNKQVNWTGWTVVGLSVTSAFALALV", "sequence (O42772 19-297)": "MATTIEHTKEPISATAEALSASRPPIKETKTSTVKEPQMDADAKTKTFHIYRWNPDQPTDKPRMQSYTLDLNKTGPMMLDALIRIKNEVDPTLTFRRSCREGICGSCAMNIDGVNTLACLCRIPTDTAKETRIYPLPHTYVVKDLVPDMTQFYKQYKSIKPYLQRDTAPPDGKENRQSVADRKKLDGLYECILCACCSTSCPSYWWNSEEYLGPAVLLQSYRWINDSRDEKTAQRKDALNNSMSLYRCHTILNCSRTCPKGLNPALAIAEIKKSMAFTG", "sequence (F9X9V6 1-193)": "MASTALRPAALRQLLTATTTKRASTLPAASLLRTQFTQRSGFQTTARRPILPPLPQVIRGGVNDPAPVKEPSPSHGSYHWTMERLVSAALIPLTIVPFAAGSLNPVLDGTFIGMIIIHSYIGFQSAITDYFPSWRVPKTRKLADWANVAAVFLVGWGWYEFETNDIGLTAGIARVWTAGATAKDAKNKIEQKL", "sequence (F9XH52 44-187)": "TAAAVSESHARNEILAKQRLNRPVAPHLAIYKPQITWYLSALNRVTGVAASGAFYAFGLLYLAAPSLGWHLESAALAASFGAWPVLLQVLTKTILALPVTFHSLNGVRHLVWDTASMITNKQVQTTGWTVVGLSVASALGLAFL", "sequence (F9WWR1 29-643 partner)": "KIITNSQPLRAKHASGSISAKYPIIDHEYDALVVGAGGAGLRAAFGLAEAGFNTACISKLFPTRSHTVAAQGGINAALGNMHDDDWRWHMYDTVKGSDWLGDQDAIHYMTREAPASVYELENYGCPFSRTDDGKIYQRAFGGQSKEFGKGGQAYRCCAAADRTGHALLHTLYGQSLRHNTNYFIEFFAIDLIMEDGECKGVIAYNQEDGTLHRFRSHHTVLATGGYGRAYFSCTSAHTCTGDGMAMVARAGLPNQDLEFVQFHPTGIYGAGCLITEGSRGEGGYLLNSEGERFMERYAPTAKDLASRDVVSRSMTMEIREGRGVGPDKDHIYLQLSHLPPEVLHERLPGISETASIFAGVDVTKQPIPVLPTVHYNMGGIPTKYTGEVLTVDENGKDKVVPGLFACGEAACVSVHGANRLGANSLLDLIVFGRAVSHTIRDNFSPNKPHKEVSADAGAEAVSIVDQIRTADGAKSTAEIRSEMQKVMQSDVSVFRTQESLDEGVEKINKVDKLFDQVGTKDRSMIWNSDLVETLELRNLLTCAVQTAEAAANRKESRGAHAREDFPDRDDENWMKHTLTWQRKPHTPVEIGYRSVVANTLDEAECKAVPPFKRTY", "test": "Succinate-quinone (SQR) SDHI sensitivity assay on purified mitochondria, 06STD024", "format": "biochemical", "method_in_brief": "(§1)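 Succinate:ubiquinone/DCPIP reductase inhibition measured on purified mitochondria from Zymoseptoria tritici strains carrying either a single C-subunit gene (ZtSDHC1, ZtSDHC1_A84I or ZtSDHC3) or both ZtSDHC1 and ZtSDHC3; pTet::SDHC3 transformant tested under repressed and induced conditions.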"}, "[2]": {"system": "Zymoseptoria tritici isolates", "test": "Growth tests on solid agar at discriminatory fungicide concentrations", "format": "cell-based", "conditions": "AE agar, pydiflumetofen 0.1 mg.L^-1, 18 DPI (procedure of Fig 6)", "source_text": "Fig 6 Resistance to SHA-SDHIs in Z. tritici EU populations. […] Sensitivity data are sorted by genotype according to the presence of the ZtSDHC3 gene. ** p value of 0.0029 in Welch’s corrected unpaired t-test. (B) Solid agar growth of a collection of 93 Z. tritici isolates sampled in 2009 (same set as above). Individual strains from this collection are boxed and numbered 1 to 93. Boxes A and B correspond to reference resistant strains 06STD024 and 07STGB009 respectively. Box C corresponds to IPO323 reference sensitive isolate. The yellow framed boxes correspond to strains carrying the ZtSDHC3 gene. Yellow arrow designates strain 09STIR20.1 (number 78) carrying a non-functional alt-SDHC (frameshift, S6 Table).\nA large scale spotting assay of 96 isolates (Fig 6) was performed using the V&P 96 floating pin tool VP408FP6 (V&P Scientific), equipped with flat tip FP6 pins of 1.58 mm diameter (resulting in approx. 0.4 μl transfer volume). Source cultures for cell spotting were grown in 100 μl YPD liquid medium in a 96 well flat bottom plate (Corning, 3370) at 18°C for 11 days (average cell density of 3.5·10^6/ml), then diluted 1:2x in fresh YPD medium and incubated for another 1.5 h before transfer with the pin tool (approx. 700 cells per spot) onto AE agar with or without fungicide. Plates were incubated at 20°C in the dark for up to 18 days. Smaller scale spotting assays (Figs 4 and 8) were performed using 5 days V8-agar plates inoculums adjusted to 2.10^6 spores.mL^-1 in water and diluted in steps of 3. 2μL of spore suspension was spotted on the plates, and the plates were incubated shielded from light at 21°C for 6 days."}, "[3]": {"system": "Zymoseptoria tritici field and genetically modified strains", "test": "Liquid culture assay for fungicide sensitivity determination", "format": "cell-based", "conditions": "Zymoseptoria tritici, liquid culture sensitivity", "method_in_brief": "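EC50s from liquid culture growth tests with field isolates and modified strains. Population monitoring used final concentrations 100 to 0.0001 mg.L^-1 in 10x steps (7 levels plus DMSO control); refined panel profiling used 0.5 mM to 0.47 nM in 4x steps (11 levels plus DMSO).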"}, "[4]": {"target": "altC-SQR (altC) of D024 SDHC1 KO mitochondria (Zymoseptoria tritici, UniProt A0A1X7RQW2+F9X9V6+O42772)", "sequence (A0A1X7RQW2 36-181)": "as the sequence (A0A1X7RQW2 36-181) above", "sequence (O42772 20-297)": "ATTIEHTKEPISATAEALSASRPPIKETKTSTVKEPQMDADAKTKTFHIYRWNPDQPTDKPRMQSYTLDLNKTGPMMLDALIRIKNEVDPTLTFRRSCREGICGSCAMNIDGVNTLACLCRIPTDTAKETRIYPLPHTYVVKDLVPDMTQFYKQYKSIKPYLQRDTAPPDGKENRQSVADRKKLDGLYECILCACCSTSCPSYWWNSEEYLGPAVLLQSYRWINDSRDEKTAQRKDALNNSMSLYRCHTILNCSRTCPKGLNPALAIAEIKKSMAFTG", "sequence (F9X9V6 1-193)": "as the sequence (F9X9V6 1-193) above", "sequence (F9WWR1 41-643 partner)": "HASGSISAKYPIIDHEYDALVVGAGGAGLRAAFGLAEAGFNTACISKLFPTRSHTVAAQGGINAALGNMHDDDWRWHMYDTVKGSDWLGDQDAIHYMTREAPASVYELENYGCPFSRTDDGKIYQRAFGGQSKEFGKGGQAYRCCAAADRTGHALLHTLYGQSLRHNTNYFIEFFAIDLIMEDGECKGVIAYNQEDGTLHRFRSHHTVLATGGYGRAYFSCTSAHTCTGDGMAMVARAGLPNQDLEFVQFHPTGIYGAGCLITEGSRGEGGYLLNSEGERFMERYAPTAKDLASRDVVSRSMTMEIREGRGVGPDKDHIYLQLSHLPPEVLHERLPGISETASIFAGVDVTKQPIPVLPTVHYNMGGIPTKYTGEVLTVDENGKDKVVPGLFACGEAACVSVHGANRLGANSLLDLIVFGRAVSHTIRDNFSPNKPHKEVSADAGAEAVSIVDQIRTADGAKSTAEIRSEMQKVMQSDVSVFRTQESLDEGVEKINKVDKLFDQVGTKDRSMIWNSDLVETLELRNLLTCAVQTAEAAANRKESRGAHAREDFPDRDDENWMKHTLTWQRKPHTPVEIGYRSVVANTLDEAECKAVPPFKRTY", "test": "Succinate-quinone (SQR) SDHI sensitivity assay on purified mitochondria, 06STD024 SDHC1 KO", "format": "biochemical", "conditions": "for RF (resistance factor), D024 SDHC1 KO (altC): IC50 ratio compared to IPO323 values", "method_in_brief": "as §1"}, "[5]": {"target": "SQR (SDHC) of D024 SDHC3 KO mitochondria (Zymoseptoria tritici, UniProt F9X9V6+F9XH52+O42772)", "test": "Succinate-quinone (SQR) SDHI sensitivity assay on purified mitochondria, 06STD024 SDHC3 KO", "format": "biochemical", "method_in_brief": "(§2)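 Mitochondria purified from each strain were used for succinate:ubiquinone/DCPIP reductase assays, with suspensions adjusted to similar initial velocity (1 OD595nm hour^-1). Inhibitor was tested at 0.047 nM–50 μM in 4x steps (11 concentrations plus DMSO). IC50 came from non-linear fits of absorbance slopes (OD/min) against log concentration.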"}, "[6]": {"target": "SQR (SDHC / altC) of IPO323 pTet::SDHC3 transformant, repressed (Zymoseptoria tritici, UniProt A0A1X7RQW2+F9X9V6+F9XH52+O42772)", "sequence (F9XH52 44-187)": "as the sequence (F9XH52 44-187) above", "sequence (O42772 20-297)": "as the sequence (O42772 20-297) above", "sequence (F9X9V6 1-193)": "as the sequence (F9X9V6 1-193) above", "sequence (A0A1X7RQW2 36-181)": "as the sequence (A0A1X7RQW2 36-181) above", "sequence (F9WWR1 41-643 partner)": "as the sequence (F9WWR1 41-643 partner) above", "test": "Succinate-quinone (SQR) SDHI sensitivity assay on purified mitochondria, IPO323 pTet::SDHC3 repressed", "format": "biochemical", "method_in_brief": "as §1"}, "[7]": {"target": "WT-SQR (SDHC), IPO323 mitochondria (Zymoseptoria tritici, UniProt F9X9V6+F9XH52+O42772)", "test": "Succinate-quinone (SQR) SDHI sensitivity assay on purified mitochondria, IPO323", "format": "biochemical", "method_in_brief": "as §2"}, "[8]": {"conditions": "IC50 ratio compared to IPO323 values"}},
  "note": "Read-outs that look alike come from different tables or passages of the source.",
  "data": [
    {"smiles": "CON(C(=O)c1cn(C)nc1C(F)F)[C@@H](C)Cc1c(Cl)cc(Cl)cc1Cl", "note": "[Pydiflumetofen]", "values": [
      {"measurement": "RF (resistance factor), 06STD024 (SDHC / altC)", "setting": "[1]; [8]", "value": 4.6},
      {"measurement": "IC50", "setting": "[1]; mitochondria of field isolate 06STD024, mean of three ± SD", "value": "1.4 ± 0.05", "unit": "nM"},
      {"measurement": "Growth phenotype on SDHI-amended plate", "setting": "[2]; strain 06STD024", "value": "Weak"},
      {"measurement": "Growth phenotype on SDHI-amended plate", "setting": "[2]; strain 06STD024, listed as pydiflumetofen", "value": "weak growth"},
      {"measurement": "Growth phenotype on SDHI-amended plate", "setting": "[2]; strain 07STGB009", "value": "Weak"},
      {"measurement": "Growth phenotype on SDHI-amended plate", "setting": "[2]; strain 07STGB009, listed as pydiflumetofen", "value": "weak growth"},
      {"measurement": "Growth phenotype on SDHI-amended plate", "setting": "[2]; strain 09STD041", "value": "Very weak"},
      {"measurement": "Growth phenotype on SDHI-amended plate", "setting": "[2]; strain 09STD053", "value": "No"},
      {"measurement": "Growth phenotype on SDHI-amended plate", "setting": "[2]; strain 09STF011", "value": "Weak"},
      {"measurement": "Growth phenotype on SDHI-amended plate", "setting": "[2]; strain 09STF037", "value": "Very weak"},
      {"measurement": "Growth phenotype on SDHI-amended plate", "setting": "[2]; strain 09STF112", "value": "Very weak"},
      {"measurement": "Growth phenotype on SDHI-amended plate", "setting": "[2]; strain 09STIR20.3", "value": "Very weak"},
      {"measurement": "Growth phenotype on SDHI-amended plate", "setting": "[2]; strain IPO323", "value": "No"},
      {"measurement": "Growth phenotype on SDHI-amended plate", "setting": "[2]; strain IPO94269", "value": "No"},
      {"measurement": "EC50", "setting": "[3]; read-out: EC50 (nM) Mean, strain 06STD024", "value": 28.2, "unit": "nM"},
      {"measurement": "EC50", "setting": "[3]; read-out: EC50 (nM) Mean, strain 07STGB009", "value": 24.5, "unit": "nM"},
      {"measurement": "EC50", "setting": "[3]; read-out: EC50 (nM) Mean, strain 09STD041", "value": 19.8, "unit": "nM"},
      {"measurement": "EC50", "setting": "[3]; read-out: EC50 (nM) Mean, strain 09STD053", "value": 6.4, "unit": "nM"},
      {"measurement": "EC50", "setting": "[3]; read-out: EC50 (nM) Mean, strain 09STF011", "value": 17.8, "unit": "nM"},
      {"measurement": "EC50", "setting": "[3]; read-out: EC50 (nM) Mean, strain 09STF037", "value": 8.1, "unit": "nM"},
      {"measurement": "EC50", "setting": "[3]; read-out: EC50 (nM) Mean, strain 09STF112", "value": 18.7, "unit": "nM"},
      {"measurement": "EC50", "setting": "[3]; read-out: EC50 (nM) Mean, strain 09STIR20.3", "value": 8.1, "unit": "nM"},
      {"measurement": "EC50", "setting": "[3]; read-out: EC50 (nM) Mean, strain Flu21 (SDHC1_A84I)", "value": 163, "unit": "nM"},
      {"measurement": "EC50", "setting": "[3]; read-out: EC50 (nM) Mean, strain IPO323", "value": 4.5, "unit": "nM"},
      {"measurement": "EC50", "setting": "[3]; read-out: EC50 (nM) Mean, strain IPO94269", "value": 4.7, "unit": "nM"},
      {"measurement": "EC50", "setting": "[3]; read-out: EC50 (nM) Mean, strain KO_SDHC1_T1", "value": 377, "unit": "nM"},
      {"measurement": "EC50", "setting": "[3]; read-out: EC50 (nM) Mean, strain KO_SDHC1_T3", "value": 230, "unit": "nM"},
      {"measurement": "EC50", "setting": "[3]; read-out: EC50 (nM) Mean, strain KO_SDHC3_T4", "value": 5.1, "unit": "nM"},
      {"measurement": "EC50", "setting": "[3]; read-out: EC50 (nM) Mean, strain KO_SDHC3_T13", "value": 5.6, "unit": "nM"},
      {"measurement": "EC50", "setting": "[3]; read-out: EC50 (nM) Mean, strain pTet::SDHC3_I78A_T1", "value": 4.8, "unit": "nM"},
      {"measurement": "EC50", "setting": "[3]; read-out: EC50 (nM) Mean, strain pTet::SDHC3_I78A_T5", "value": 6, "unit": "nM"},
      {"measurement": "EC50", "setting": "[3]; read-out: EC50 (nM) Mean, strain pTet::SDHC3_I78A_T15", "value": 4.9, "unit": "nM"},
      {"measurement": "EC50", "setting": "[3]; read-out: EC50 (nM) Mean, strain pTet::SDHC3_I78A_T35", "value": 2.9, "unit": "nM"},
      {"measurement": "EC50", "setting": "[3]; read-out: EC50 (nM) Mean, strain pTet::SDHC3_T1", "value": 164, "unit": "nM"},
      {"measurement": "EC50", "setting": "[3]; read-out: EC50 (nM) Mean, strain pTet::SDHC3_T2", "value": 160, "unit": "nM"},
      {"measurement": "EC50", "setting": "[3]; read-out: EC50 (nM) Mean, strain pTet::SDHC3_T3", "value": 108, "unit": "nM"},
      {"measurement": "EC50", "setting": "[3]; read-out: EC50 (nM) Mean, strain pTet::SDHC3_T7", "value": 183, "unit": "nM"},
      {"measurement": "RF (resistance factor), D024 SDHC1 KO (altC)", "setting": "[4]", "value": 4.9},
      {"measurement": "RF (resistance factor), D024 SDHC1 KO (altC)", "setting": "[4]; listed as pydiflumetofen", "value": 6},
      {"measurement": "IC50", "setting": "[4]; mitochondria of 06STD024 ZtSDHC1 deletion mutant (pure altC-SQR), mean of three ± SD", "value": "1.5 ± 0.4", "unit": "nM"},
      {"measurement": "RF (resistance factor), D024 SDHC3 KO (SDHC)", "setting": "[5]; [8]", "value": 1.1},
      {"measurement": "IC50", "setting": "[5]; mitochondria of 06STD024 ZtSDHC3 deletion mutant, mean of three ± SD", "value": "0.3 ± 0.07", "unit": "nM"},
      {"measurement": "RF (resistance factor), pTet Repressed (SDHC / altC)", "setting": "[6]; [8]", "value": 1.7},
      {"measurement": "IC50", "setting": "[6]; IPO323 pTet::SDHC3 transformant grown in presence of 30 mg.L^-1 doxycycline, mean of three ± SD", "value": "0.5 ± 0.1", "unit": "nM"},
      {"measurement": "IC50", "setting": "[7]", "value": "0.3 ± 0.04", "unit": "nM"}
    ]}
  ]
}
